# In US20200397817A1, “METHOD FOR PREDICTING AND MODULATING SUSCEPTIBILITY OF CANCER CELL TO PROGRAMMED CELL DEATH” (SHIEH, Darbin, priority 2017, published 2020):
# Legend:
# ZVI refractory cells = assay: Depolarized cells, ZVI@CMC NPs plus ferroptosis inducer, refractory cells; format: cell-based; settings: ferroptosis inducer with ZVI@CMC NPs; FIG. 10A
# ZVI refractory SAS cells = assay: SAS tumor xenograft in SCID mice, tumor growth; format: in vivo; settings: 20 mg/kg RSL-3 together with 25 mg/kg ZVI@CMC NPs, tail vein, every other day x4; FIGS. 10B-10D
# From the text: Six to eight week old male mice with severe combined immunodeficiency (SCID) were used as the hosts for OSCC tumor xenografts. 3×10^6 SAS cells were subcutaneously injected into the dorsal flank of the mice to establish tumor lesions. A visible tumor mass was normally observed 1.5 to 2 weeks after the injection. When the tumor size reached approximately 50 mm^3, the mice were randomly assigned to four groups, including a PBS control group, a RSL-3 treatment group, a ZVI@CMC NP treatment group and a ZVI@CMC NP+RSL-3 treatment group (n=4 per group). PBS solution, 20 mg/kg of RSL-3 and 25 mg/kg of ZVI@CMC NPs were individually administered to the mice through tail vein injection once every other day for four times before the final tumor size in every group was measured. The Tumor volumes were measured by a digital caliper and calculated using the formula: […].
# [1] = system: ZVI refractory HSC-3, SAS and OEC-M1 R3 cells; assay: Cell survival assay, ZVI@CMC NPs plus ferroptosis inducer, refractory cells; format: cell-based; settings: ferroptosis inducer in combination with 5 μg/mL ZVI@CMC NPs, 48 h; FIG. 10A
# Experimental: (§1) Cytotoxicity of the ZVI NPs was evaluated by the MTT assay using 3-(4,5-dimethylthiazol-2-yl)-2,5-diphenyltetrazolium bromide. Log-phase OSCC cells were seeded at a density of 5000 cells per well in a 96-well culture plate and incubated for 16 h. The attached cells were then incubated with a series of concentrations of ZVI NPs for 48 h. Subsequently, culture medium of the cells were replaced by fresh complete medium contained 0.5 mg/mL of MTT and the cells were incubated at 37° C. for 1 h. After removing the medium, the resulting MTT crystals were dissolved in DMSO and measured for their optical absorbance at 550 nm to determine viability of the cells.
# (§2) Additionally, various cell survival assays were conducted by incubating the cells with 5 μg/mL of ZVI@CMC NPs in combination with an iron chelator (eg. 1 μM of 1, 10-phenanthroline or 1 μM of desferoxamine (DFO)), a ROS scavenger (eg. 100 μM of vitamin C, 100 μM of vitamin E, 100 μM of TEMPOL, 5 μM of mito-lEMPOL, 100 μM Trolox, 100 μM Tiron, or 500 μM NAC), a ferroptosis inhibitor (eg. 5 μM of liproxstatin and 50 μM of ferrostatin) or a ferroptosis inducer (eg. 0.05 μM of RSL-3 or 1 μM of erastin) for 48 h.
# [2] = system: ZVI sensitive OEC-M1 cells; assay: Cell survival assay, ZVI@CMC NPs plus ROS scavenger, OEC-M1; format: cell-based; settings: 48 h, FIG. 4; for cell viability recovered as compared with ZVI@CMC NPs alone: ROS scavenger together with 5 μg/mL ZVI@CMC NPs
# Experimental: as §1, §2
# [3] = system: ZVI sensitive cells OEC-M1 and SCC-9; assay: Cell survival assay, ZVI@CMC NPs plus co-agent, OEC-M1 and SCC-9; settings: added to 5 μg/mL ZVI@CMC NPs, 48 h; FIG. 7B
# Experimental: as §1, §2
# [4] = system: ZVI sensitive SCC-9 and OEC-M1 cell lines; assay: Mitochondrial membrane potential (MitoTracker flow cytometry), sensitive lines; format: cell-based; settings: added to ZVI@CMC NPs; FIG. 7C
# Experimental: Depolarization of the ZVI NP treated cells was assessed by double staining with 50 nM of MitoTracker Green, a commercial dye for indicating total mitochondrial mass, and 100 nM of MitoTracker Deep Red, another commercial dye for indicating mitochondria membrane potential (ΔΨ), at 37° C. for 30 min, followed by analysis of red fluorescent signals under an excitation wavelength of 644 nm and an emission wavelength of 665 nm and green fluorescent signals under an excitation wavelength of 490 nm and an emission wavelength of 516 nm by a BD Canto II Flow Cytometer.
structure (smiles),measurement,setting,value
"COC(=O)c1ccc([C@H]2c3[nH]c4ccccc4c3C[C@H](C(=O)OC)N2C(=O)CCl)cc1 [RSL-3, methyl (1S,3R)-2-(2-chloroacetyl)-1-(4-methoxycarbonylphenyl)-1,3,4,9-tetrahydropyrido[3,4-b]indole-3-carboxylate]",percentage of depolarized cells,ZVI refractory cells,dramatically increased
same,tumor growth as compared to ZVI@CMC NPs or RSL-3 alone,ZVI refractory SAS cells,significantly delayed
same,cell viability as compared with ZVI@CMC NPs alone,[1],significantly reduced
"CC1(C)CC(O)CC(C)(C)N1[O] [TEMPOL, 4-hydroxy-2,2,6,6-tetramethylpiperidin-1-oxyl]",cell viability recovered as compared with ZVI@CMC NPs alone,[2],about 50%
CCOC(=O)c1ccc(NC2CCCCC2)c(N)c1 [ferrostatin],recovery of cell viability of ZVI@CMC NP treated cells,[3],~50%
same,percentage of depolarized cells caused by ZVI@CMC NP induced mitochondrial hyperoxidation,[4],reduce the percentage of depolarized cells
"O=S(=O)([O-])c1cc(O)c(O)c(S(=O)(=O)[O-])c1.[Na+].[Na+] [Tiron, disodium 4,5-dihydroxy-1,3-benzenedisulfonate]",cell viability recovered as compared with ZVI@CMC NPs alone,[2],about 50%
"CCOc1ccccc1-n1c(C(C)N2CCN(C(=O)COc3ccc(Cl)cc3)CC2)nc2ccccc2c1=O (stereo not shown) [erastin, 2-[1-[4-[2-(4-chlorophenoxy)acetyl]piperazin-1-yl]ethyl]-3-(2-ethoxyphenyl)quinazolin-4-one]",percentage of depolarized cells,ZVI refractory cells,dramatically increased
same,cell viability as compared with ZVI@CMC NPs alone,[1],significantly reduced
Clc1cccc(CN=C2Nc3ccccc3NC23CCNCC3)c1 [liproxstatin],recovery of cell viability of ZVI@CMC NP treated cells,[3],~50%
same,percentage of depolarized cells caused by ZVI@CMC NP induced mitochondrial hyperoxidation,[4],reduce the percentage of depolarized cells
"CC(=O)N[C@@H](CS)C(=O)O [NAC, N-acetylcysteine]",effect of co-agent on cytotoxicity of ZVI@CMC NPs,[2]; cotreatment with 5 μg/mL ZVI@CMC NPs,reduce cytotoxicity
"Cc1c(C)c2c(c(C)c1O)CCC(C)(C(=O)O)O2 (stereo not shown) [Trolox, 6-Hydroxy-2,5,7,8-tetramethylchroman-2-carboxylic acid]",cell viability recovered as compared with ZVI@CMC NPs alone,[2],about 50%
